Laboratory results taken from patent US20260242419A1, “A CYCLIC PEPTIDE FOR TRAPPING INTERLEUKIN-1 BETA” (Merck Sharp & Dohme LLC, priority 2023, published 2026).
Non-standard residues stand in square brackets, D forms with d. Residues, ends and D or L forms follow the SMILES beside them. dPro(4R-(4-pyridylmethyl)) = O=C(O)[C@H]1C[C@@H](Cc2ccncc2)CN1; Trp(βS-Me,4-F) = C[C@@H](c1c[nH]c2cccc(F)c12)[C@H](N)C(=O)O; Bip(4'-CONH2) = NC(=O)c1ccc(-c2ccc(C[C@H](N)C(=O)O)cc2)cc1; Bip(4'-COOH) = N[C@@H](Cc1ccc(-c2ccc(C(=O)O)cc2)cc1)C(=O)O; Ala(1-bicyclo(1.1.1)pentyl) = N[C@@H](CC12CC(C1)C2)C(=O)O; dPro(3S-(4-F-Bn)) = O=C(O)[C@@H]1NCC[C@@H]1Cc1ccc(F)cc1; Ala(pyrimidin-5-yl) = N[C@@H](Cc1cncnc1)C(=O)O; Phe(4-COOH) = N[C@@H](Cc1ccc(C(=O)O)cc1)C(=O)O; Pro(cis-4-F) = O=C(O)[C@@H]1C[C@H](F)CN1; Ala(4-THP) = N[C@@H](CC1CCOCC1)C(=O)O; cisHyp = O=C(O)[C@@H]1C[C@H](O)CN1; 4Pal = N[C@@H](Cc1ccncc1)C(=O)O; αMeD = C[C@](N)(CC(=O)O)C(=O)O; d(αMeS) = C[C@@](N)(CO)C(=O)O; Dab = NCC[C@H](N)C(=O)O; Aib = CC(C)(N)C(=O)O; Sar = CNCC(=O)O

Each compound was assayed against T1, IL-1β (Homo sapiens, UniProt P01584) (assay: IL-6 assay in MRC5 cells: inhibition of IL-1β induced IL-6 secretion (AlphaLISA)). Settings: inhibition of IL-1β induced IL-6 secretion in MRC5 cells; read-out: MRC5 IC50.
T1 construct: purchased BioLegend 579404
T1 sequence (P01584 117-269): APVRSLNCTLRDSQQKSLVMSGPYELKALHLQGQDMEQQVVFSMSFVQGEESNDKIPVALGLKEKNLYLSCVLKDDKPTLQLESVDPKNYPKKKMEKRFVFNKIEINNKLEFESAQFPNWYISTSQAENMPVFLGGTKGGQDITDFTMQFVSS
Assay type: cell-based
Outline: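 Compound was pre-incubated 1 h at ambient temperature with recombinant human IL-1β at 2λ EC80 before adding human lung fibroblast MRC5 cells (3000/well) in EMEM with 0.025% BSA. After overnight culture at 37 °C, 5% CO2, secreted IL-6 in conditioned medium was measured by AlphaLISA; IC50 from 4-parameter logistic fits.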

| SMILES | IC50 [pM] |
| --- | --- |
| C[C@@H](c1c[nH]c2cccc(F)c12)[C@@H]1NC(=O)[C@@H]2C[C@H](O)CN2C(=O)CNC(=O)[C@H](Cc2ccc(C(=O)O)cc2)NC(=O)[C@H](Cc2ccncc2)NC(=O)[C@H](Cc2ccc(-c3ccc(C(=O)O)cc3)cc2)NC(=O)[C@H]2C[C@@H](Cc3ccncc3)CN2C(=O)CN(C)C(=O)[C@H](CCN)NC(=O)[C@H](CCC(N)=O)NC(=O)[C@H](CC2CCOCC2)NC(=O)[C@@](C)(CO)NC(=O)[C@H](Cc2c[nH]c3ccccc23)NC(=O)[C@H](CO)NC(=O)C(C)(C)NC1=O [Example 207] (cyclo([Bip(4'-COOH)][4Pal][Phe(4-COOH)]G[cisHyp][Trp(βS-Me,4-F)][Aib]SW[d(αMeS)][Ala(4-THP)]Q[Dab][Sar][dPro(4R-(4-pyridylmethyl))])) | 44 |
| C[C@@H](c1c[nH]c2cccc(F)c12)[C@@H]1NC(=O)[C@@H]2C[C@H](O)CN2C(=O)CNC(=O)[C@H](Cc2ccc(C(=O)O)cc2)NC(=O)[C@H](Cc2ccncc2)NC(=O)[C@H](Cc2ccc(-c3ccc(C(=O)O)cc3)cc2)NC(=O)[C@H]2C[C@@H](Cc3ccncc3)CN2C(=O)CN(C)C(=O)[C@H](CCN)NC(=O)[C@H](CCC(N)=O)NC(=O)[C@H](Cc2cncnc2)NC(=O)[C@](C)(CC(=O)O)NC(=O)[C@H](Cc2c[nH]c3ccccc23)NC(=O)[C@H](CO)NC(=O)C(C)(C)NC1=O [Example 209] (cyclo([Bip(4'-COOH)][4Pal][Phe(4-COOH)]G[cisHyp][Trp(βS-Me,4-F)][Aib]SW[αMeD][Ala(pyrimidin-5-yl)]Q[Dab][Sar][dPro(4R-(4-pyridylmethyl))])) | 34 |
| C[C@@H](c1c[nH]c2cccc(F)c12)[C@@H]1NC(=O)[C@@H]2C[C@H](O)CN2C(=O)CNC(=O)[C@H](Cc2ccc(C(=O)O)cc2)NC(=O)[C@H](Cc2ccncc2)NC(=O)[C@H](Cc2ccc(-c3ccc(C(=O)O)cc3)cc2)NC(=O)[C@H]2C[C@@H](Cc3ccncc3)CN2C(=O)CN(C)C(=O)[C@H](CCN)NC(=O)[C@H](CCC(N)=O)NC(=O)[C@H](CC2CCOCC2)NC(=O)[C@](C)(CC(=O)O)NC(=O)[C@H](Cc2c[nH]c3ccccc23)NC(=O)[C@H](CO)NC(=O)C(C)(C)NC1=O [Example 210] (cyclo([Bip(4'-COOH)][4Pal][Phe(4-COOH)]G[cisHyp][Trp(βS-Me,4-F)][Aib]SW[αMeD][Ala(4-THP)]Q[Dab][Sar][dPro(4R-(4-pyridylmethyl))])) | 29 |
| C[C@@H](c1c[nH]c2cccc(F)c12)[C@@H]1NC(=O)[C@@H]2C[C@H](O)CN2C(=O)CNC(=O)[C@H](Cc2ccc(C(=O)O)cc2)NC(=O)[C@H](Cc2ccncc2)NC(=O)[C@H](Cc2ccc(-c3ccc(C(=O)O)cc3)cc2)NC(=O)[C@H]2C[C@@H](Cc3ccncc3)CN2C(=O)CNC(=O)[C@H](CCN)NC(=O)[C@H](CCC(N)=O)NC(=O)[C@H](CC2CCOCC2)NC(=O)C(C)(C)NC(=O)[C@H](Cc2c[nH]c3ccccc23)NC(=O)[C@H](CO)NC(=O)C(C)(C)NC1=O [Example 212] (cyclo([Bip(4'-COOH)][4Pal][Phe(4-COOH)]G[cisHyp][Trp(βS-Me,4-F)][Aib]SW[Aib][Ala(4-THP)]Q[Dab]G[dPro(4R-(4-pyridylmethyl))])) | 29 |

The next compounds have a lower IC50 than those just listed; values first:

| IC50 [pM] | SMILES |
| --- | --- |
| 21 | C[C@@H](c1c[nH]c2cccc(F)c12)[C@@H]1NC(=O)[C@@H]2C[C@H](O)CN2C(=O)CNC(=O)[C@H](Cc2ccc(C(=O)O)cc2)NC(=O)[C@H](Cc2ccncc2)NC(=O)[C@H](Cc2ccc(-c3ccc(C(=O)O)cc3)cc2)NC(=O)[C@H]2C[C@@H](Cc3ccncc3)CN2C(=O)CNC(=O)[C@H](CCN)NC(=O)[C@H](CCC(N)=O)NC(=O)[C@H](CC2CCOCC2)NC(=O)[C@@](C)(CO)NC(=O)[C@H](Cc2c[nH]c3ccccc23)NC(=O)[C@H](CO)NC(=O)C(C)(C)NC1=O [Example 213] (cyclo([Bip(4'-COOH)][4Pal][Phe(4-COOH)]G[cisHyp][Trp(βS-Me,4-F)][Aib]SW[d(αMeS)][Ala(4-THP)]Q[Dab]G[dPro(4R-(4-pyridylmethyl))])) |
| 19 | C[C@@H](c1c[nH]c2cccc(F)c12)[C@@H]1NC(=O)[C@@H]2C[C@H](F)CN2C(=O)CNC(=O)[C@H](Cc2ccc(C(=O)O)cc2)NC(=O)[C@H](Cc2ccncc2)NC(=O)[C@H](Cc2ccc(-c3ccc(C(=O)O)cc3)cc2)NC(=O)[C@H]2C[C@@H](Cc3ccncc3)CN2C(=O)CNC(=O)[C@H](CCN)NC(=O)[C@H](CCC(N)=O)NC(=O)[C@H](CC2CCOCC2)NC(=O)C(C)(C)NC(=O)[C@H](Cc2c[nH]c3ccccc23)NC(=O)[C@H](CO)NC(=O)C(C)(C)NC1=O [Example 211] (cyclo([Bip(4'-COOH)][4Pal][Phe(4-COOH)]G[Pro(cis-4-F)][Trp(βS-Me,4-F)][Aib]SW[Aib][Ala(4-THP)]Q[Dab]G[dPro(4R-(4-pyridylmethyl))])) |
| 15 | C[C@@H](c1c[nH]c2cccc(F)c12)[C@@H]1NC(=O)[C@@H]2C[C@H](F)CN2C(=O)CNC(=O)[C@H](Cc2ccc(C(=O)O)cc2)NC(=O)[C@H](Cc2ccncc2)NC(=O)[C@H](Cc2ccc(-c3ccc(C(=O)O)cc3)cc2)NC(=O)[C@H]2C[C@@H](Cc3ccncc3)CN2C(=O)CN(C)C(=O)[C@H](CCN)NC(=O)[C@H](CCC(N)=O)NC(=O)[C@H](CC2CCOCC2)NC(=O)[C@](C)(CC(=O)O)NC(=O)[C@H](Cc2c[nH]c3ccccc23)NC(=O)[C@H](CO)NC(=O)C(C)(C)NC1=O [Example 208] (cyclo([Bip(4'-COOH)][4Pal][Phe(4-COOH)]G[Pro(cis-4-F)][Trp(βS-Me,4-F)][Aib]SW[αMeD][Ala(4-THP)]Q[Dab][Sar][dPro(4R-(4-pyridylmethyl))])) |
| 10 | C[C@@H](c1c[nH]c2cccc(F)c12)[C@@H]1NC(=O)[C@@H]2C[C@H](F)CN2C(=O)CNC(=O)[C@H](Cc2ccc(C(=O)O)cc2)NC(=O)[C@H](Cc2ccncc2)NC(=O)[C@H](Cc2ccc(-c3ccc(C(N)=O)cc3)cc2)NC(=O)[C@H]2C[C@@H](Cc3ccncc3)CN2C(=O)CNC(=O)[C@H](CCN)NC(=O)[C@H](CCC(N)=O)NC(=O)[C@H](CC2CCOCC2)NC(=O)[C@@](C)(CO)NC(=O)[C@H](Cc2c[nH]c3ccccc23)NC(=O)[C@H](CO)NC(=O)C(C)(C)NC1=O [Example 215] (cyclo([Bip(4'-CONH2)][4Pal][Phe(4-COOH)]G[Pro(cis-4-F)][Trp(βS-Me,4-F)][Aib]SW[d(αMeS)][Ala(4-THP)]Q[Dab]G[dPro(4R-(4-pyridylmethyl))])) |
| 8 | C[C@@H](c1c[nH]c2cccc(F)c12)[C@@H]1NC(=O)[C@@H]2C[C@H](F)CN2C(=O)CNC(=O)[C@H](Cc2ccc(C(=O)O)cc2)NC(=O)[C@H](CC23CC(C2)C3)NC(=O)[C@H](Cc2ccc(-c3ccc(C(N)=O)cc3)cc2)NC(=O)[C@H]2[C@@H](Cc3ccc(F)cc3)CCN2C(=O)CNC(=O)[C@H](CCN)NC(=O)[C@H](CCC(N)=O)NC(=O)[C@H](CC2CCOCC2)NC(=O)[C@@](C)(CO)NC(=O)[C@H](Cc2c[nH]c3ccccc23)NC(=O)[C@H](CO)NC(=O)C(C)(C)NC1=O [Example 216] (cyclo([Bip(4'-CONH2)][Ala(1-bicyclo(1.1.1)pentyl)][Phe(4-COOH)]G[Pro(cis-4-F)][Trp(βS-Me,4-F)][Aib]SW[d(αMeS)][Ala(4-THP)]Q[Dab]G[dPro(3S-(4-F-Bn))])) |
